Measured values: PMC8126888 (RSC Medicinal Chemistry, 2020)
In brackets after ≈: the same amount, converted by molar mass. Where two headings read alike, the source gives them in different places.

Columns and labels:
[1] = physchem
[2] = in vitro; conditions: mouse, microsomes; for microsomal CLint at 0.5 h, 0.5 µM: pH 7.4, Microsome Clint,u Mouse, Table 2
[3] = 6 h incubation in mouse plasma
[4] = test system: primary peritoneal mouse macrophages (PMM); assay: cells; conditions: Macrophage
[5] = in vitro; conditions: human, microsomes
[6] = test system: Leishmania infantum MHOM/MA(BE)/67/ITMAP263 intracellular amastigotes; assay: microbe, parasite or virus in culture; conditions: Macrophage, in Mus musculus
[7] = for improvement in the in vitro mouse clearance: versus the preceding analogue
[8] = physchem; conditions: HPLC, Ascentis Express RP Amide column
[9] = in vitro; conditions: plasma
[10] = test system: T. b. brucei (Squib-427); assay: microbe, parasite or virus in culture; conditions: Trypanosoma brucei, RHODESIENSE
[11] = test system: Trypanosoma cruzi, Tulahuen CL2, beta-galactosidase strain; assay: microbe, parasite or virus in culture; conditions: MRC5, read-out: T. cruzi Tulahuen C4 (LacZ) IC50 (uM)
[12] = in vitro; conditions: human
[13] = in vitro; conditions: human; for CC50 at 120 h: THP-1 cells differentiated with PMA; for IC50 at 120 h: PMA-differentiated THP-1 cells
[14] = test system: Leishmania infantum (MHOM/MA/67/ITMAP-263) intracellular amastigotes in THP-1; assay: microbe, parasite or virus in culture
[15] = in vitro; conditions: human, HFF-1 cells
[16] = in vitro; conditions: PAMPA
[17] = in vitro; conditions: human, HepG2 cells
[18] = test system: primary peritoneal mouse macrophages (PMM); conditions: for PMM pIC50: cytotoxicity to PMM, geometric mean of a minimum of two experiments ± standard error
[19] = human liver microsomes
[20] = test system: primary peritoneal mouse macrophages (PMM); assay: Cytotoxicity to PMM (microscopic scoring within susceptibility assay); conditions: Swiss, mouse
[21] = test system: Leishmania infantum MHOM/MA(BE)/67/ITMAP263 intracellular amastigotes; conditions: for L. inf. pIC50: intracellular amastigotes in PMM, geometric mean of a minimum of two experiments ± standard error
[22] = pH 7.4
[23] = test system: Trypanosoma cruzi, Tulahuen CL2, beta-galactosidase strain; conditions: read-out: T. cruzi Tulahuen C4 (LacZ) IC50
[24] = test system: MRC-5SV2 cells; assay: Cytotoxicity assay on MRC-5SV2 cells (resazurin); conditions: human, 3 days
[25] = in vitro; conditions: human, HepG2 cells; remark: listed apart in the source
[26] = test system: L. donovani MHOM/SD/62/1SCL2D intracellular amastigotes; assay: microbe, parasite or virus in culture; conditions: Leishmania donovani, read-out: L. donovani MHOM/SD/62/1SCL2D intracellular amastigotes IC50
[27] = test system: Vero; assay: cells; conditions: Chlorocebus sabaeus, read-out: Vero IC50
[28] = metabolite ID, peak area of substrate or metabolite
[29] = metabolite ID, peak area of substrate or metabolite; remark: listed apart in the source
[30] = test system: Leishmania infantum (MHOM/MA/67/ITMAP-263) intracellular amastigotes in THP-1; conditions: THP-1 host cells, 120 hours
[31] = test system: THP-1 cells; conditions: 120 hours, Alamar Blue
[32] = intrinsic in vitro clearance, liver microsomes
[33] = read-out: PMM pIC50 (converted)
[34] = pH 7.4, Microsome Clint,u Human, Table 2, intrinsic in vitro clearance, liver microsomes
[35] = read-out: L. inf. pIC50, intracellular amastigotes in PMM (converted), geometric mean of a minimum of two experiments ± standard error
[36] = pH 7.4, elog D, HPLC measured log D, pH 7.4
[37] = THP-1, 120 h, read-out: Intracellular activity pIC50 L. inf. in THP-1 (converted)

For `COc1ccc(C(=O)N2CCOCC2)cc1S(=O)(=O)N(Cc1ccc(F)cc1)Cc1ccc(C(F)(F)F)nc1` [Compound 46], which solubility kinetic ([1]; aqueous medium, pH 2.0, pH 2) is on record?
The solubility kinetic was 3.8 µg/mL (≈ 6.7 µM).

What about the solubility kinetic ([1]; aqueous medium, pH 7.4, pH 7.4) of the same compound?
The solubility kinetic was 3.2 µg/mL (≈ 5.64 µM).

What about the microsomal CLint at 0.5 h, 0.5 µM [2, 32] of the same compound?
The microsomal CLint at 0.5 h, 0.5 µM was 534 µL/min/mg.

What about the “Mouse plasma stability (6 h)” value [3] of the same compound?
Its value is 22 % remaining.

What about the IC50 [4, 33] of the same compound?
The IC50 was greater than 64.6 µM.

And the microsomal CLint at 0.5 h, 0.5 µM [5, 34]?
Its microsomal CLint at 0.5 h, 0.5 µM is 265 µL/min/mg.

And the IC50 [6, 35]?
The IC50 was 1.74 µM.

And the “improvement in the in vitro mouse clearance” value [7]?
The value was 4 fold.

What about the chromatographic logD [8, 36] of the same compound?
The chromatographic logD was 3.7.

And the fraction unbound ([9]; Plasma protein binding (PPB))?
The fraction unbound was 0.041.

With `Cc1ccc(C(=O)Nc2ccc(S(=O)(=O)O)c3cc(S(=O)(=O)O)cc(S(=O)(=O)O)c23)cc1NC(=O)c1cccc(NC(=O)Nc2cccc(C(=O)Nc3cc(C(=O)Nc4ccc(S(=O)(=O)O)c5cc(S(=O)(=O)O)cc(S(=O)(=O)O)c45)ccc3C)c2)c1` [Suramin] as the compound, how does the IC50 [10] read?
Its IC50 is roughly 0.05 µM.

Which results are given for `COc1ccc(C(=O)N2CCOCC2)cc1S(=O)(=O)N(Cc1ccccc1)Cc1cnc(C(F)(F)F)nc1` [DNDI0003425509]?
IC50 [11]: 7.07 µM; CC50 at 3 days [12]: > 64 µM; solubility kinetic ([1]; PBS, pH 7.4, aqueous buffer, kinetic from dmso stock): 6.22 µg/mL (≈ 11.3 µM); microsomal CLint at 0.5 μM ([2]; pH 7.4, MLM CLint (uL/min/mg), mouse liver microsomes): 78 µL/min/mg; IC50 ([4]; read-out: PMM IC50 (uM)): > 64 µM; microsomal CLint at 0.5 μM ([5]; pH 7.4, HLM CLint (uL/min/mg), human liver microsomes): 76 µL/min/mg; IC50 ([6]; read-out: L. Inf. pIC50, from L. infantum intracellular amastigote IC50 (converted)): 4.37 µM; IC50 ([6]; read-out: L. infantum MHOM/MA(BE)/67/ITMAP263 intracellular amastigotes IC50 (uM), intracellular amastigotes): 4.35 µM; CC50 at 120 h [13]: > 64 µM; IC50 ([14]; THP-1, read-out: L. infantum MHOM/MA/67/ITMAP263 intracellular amastigotes THP-1 cells IC50 (uM)): > 64 µM; CC50 [15]: > 64 µM; Papp [16]: 15.2 ×10⁻⁶ cm/s; chromatographic logD ([8]; pH 7.4, eLogD, experimental): 3.1; KS PBS - pH 2 (ug/mL): 11.3 ug/mL; fraction unbound ([9]; PPB (%)): 0.117; CC50 [17]: > 64 µM

For `COc1ccc(C(=O)N2CCOCC2)cc1S(=O)(=O)N(Cc1ccccc1)Cc1cnc(C(F)(F)F)nc1` [Compound 47], which solubility kinetic ([1]; aqueous medium, pH 2.0, pH 2) is on record?
The solubility kinetic was 11.3 µg/mL (≈ 20.5 µM).

What about the solubility kinetic ([1]; aqueous medium, pH 7.4, pH 7.4) of the same compound?
Its solubility kinetic is 6.2 µg/mL (≈ 11.3 µM).

And the microsomal CLint at 0.5 h, 0.5 µM [2, 32]?
The microsomal CLint at 0.5 h, 0.5 µM was 152 µL/min/mg.

And the “Mouse plasma stability (6 h)” value [3]?
The value was 42 % remaining.

And the IC50 [4, 33]?
Its IC50 is greater than 64.6 µM.

And the microsomal CLint at 0.5 h, 0.5 µM [5, 34]?
Its microsomal CLint at 0.5 h, 0.5 µM is 73 µL/min/mg.

What about the IC50 [6, 35] of the same compound?
The IC50 was 4.47 µM.

What about the IC50 at 120 h [13] of the same compound?
Its IC50 at 120 h is greater than 64.6 µM.

What about the “improvement in the in vitro mouse clearance” value [7] of the same compound?
Its value is 4 fold.

What about the IC50 [14, 37] of the same compound?
The IC50 was greater than 64.6 µM.

And the chromatographic logD [8, 36]?
Its chromatographic logD is 3.5.

What about the fraction unbound ([9]; Plasma protein binding (PPB)) of the same compound?
Its fraction unbound is 0.117.

Which results are given for `CC[C@H](Cc1ccccc1)[S+]([O-])c1ccccc1OC` (stereo partly drawn) [DNDI0003362002]?
SI (vs PMM) ([18]; PMM IC50 / L. infantum IC50): 2; HLM CLint [19]: 390 µL/min/mg; IC50 [20]: > 64 µM; L. Inf. pIC50 ([21]; from L. infantum intracellular amastigote IC50): 4.45; IC50 ([21]; read-out: L. infantum MHOM/MA(BE)/67/ITMAP263 intracellular amastigotes IC50): 35.3 µM; eLogD [22]: 3.7; MLM CLint ([7]; mouse liver microsomes): 3623 µL/min/mg; IC50 [23]: 30.8 µM; CC50 [24]: > 64 µM

With `O=S(=O)(c1ccc2nncn2c1)N(Cc1cccc(F)c1)c1ccc2c(c1)OCO2` [DNDI0003321886] as the compound, how does the CC50 [25] read?
The CC50 was greater than 50 µM.

And the CC50 at 120 h [13]?
Its CC50 at 120 h is greater than 50 µM.

And the IC50 [26]?
Its IC50 is greater than 50 µM.

And the IC50 [27]?
Its IC50 is 35 µM.

With `COc1ccc(C(=O)NC2COC2)cc1S(=O)(=O)N(Cc1ccc(F)cc1)Cc1ccc(F)cc1` [Compound 23] as the compound, how does the microsomal CLint at 0.5 μM ([2]; pH 7.4, Microsome Clint Mouse, intrinsic in vitro clearance, liver microsomes) read?
Its microsomal CLint at 0.5 μM is 395 µL/min/mg.

And the IC50 [4, 33]?
The IC50 was greater than 64.6 µM.

And the microsomal CLint at 0.5 μM ([5]; pH 7.4, Microsome Clint Human, intrinsic in vitro clearance, liver microsomes)?
The microsomal CLint at 0.5 μM was 178 µL/min/mg.

What about the IC50 [6, 35] of the same compound?
The IC50 was 0.794 µM.

What about the IC50 at 120 h [13] of the same compound?
The IC50 at 120 h was greater than 64.6 µM.

What about the IC50 [14, 37] of the same compound?
Its IC50 is 8.51 µM.

What about the chromatographic logD [8, 36] of the same compound?
The chromatographic logD was 4.

What about the “Area% Human” value [28] of the same compound?
The value was 84.9%.

And the “Area% Mouse” value [29]?
Its value is 89.1%.

For `COc1ccc(S(=O)(=O)N2Cc3ccccc3CC2C(=O)NCc2ccccc2)cc1` (stereo not drawn) [DNDI0003338988], which CC50 [25] is on record?
Its CC50 is greater than 50 µM.

What about the CC50 at 120 h [13] of the same compound?
Its CC50 at 120 h is greater than 50 µM.

And the IC50 [26]?
Its IC50 is greater than 50 µM.

And the IC50 [27]?
The IC50 was 29 µM.

Which CC50 [25] does the source give for `COc1ccc(C2c3cccn3CCN2S(=O)(=O)c2ccc3ccccc3c2)cc1` (stereo not drawn) [DNDI0003355838] here?
The CC50 was greater than 50 µM.

What about the CC50 at 120 h [13] of the same compound?
Its CC50 at 120 h is greater than 50 µM.

What about the IC50 [26] of the same compound?
The IC50 was greater than 50 µM.

And the IC50 [27]?
The IC50 was greater than 50 µM.

What does the source list for `COc1ccc(S(C)(=O)=O)cc1S(=O)(=O)N(Cc1ccccc1)CC(C)(C)C` [SI52]?
Intracellular activity pIC50 L. inf. in THP-1 [30]: 4.32±0.01; PMM pIC50 [18]: < 4.19; pIC50 Cytotoxicity THP-1 [31]: < 4.19; L. inf. pIC50 [21]: 5.56±0.28

Which CC50 [25] does the source give for `COc1ccc(CN(c2ccc3c(c2)OCO3)S(=O)(=O)c2ccc3nncn3c2)cc1` [DNDI0003321888] here?
The CC50 was greater than 50 µM.

What about the CC50 at 120 h [13] of the same compound?
The CC50 at 120 h was greater than 50 µM.

What about the IC50 [26] of the same compound?
Its IC50 is greater than 50 µM.

What about the IC50 [27] of the same compound?
Its IC50 is greater than 50 µM.

What does the source list for `COc1ccc(OC)c(S(=O)(=O)N(Cc2ccc(F)cc2)Cc2oc(C)nc2C)c1` [SI51]?
Intracellular activity pIC50 L. inf. in THP-1 [30]: 4.51±0.03; PMM pIC50 [18]: < 4.19; pIC50 Cytotoxicity THP-1 [31]: < 4.19; L. inf. pIC50 [21]: 5.63±0.04

Which IC50 [4, 33] does the source give for `COc1ccc(OC)c(S(=O)(=O)N(C)Cc2ccc(F)cc2)c1` [Compound 37] here?
Its IC50 is greater than 64.6 µM.

And the microsomal CLint at 0.5 μM [5, 34]?
The microsomal CLint at 0.5 μM was 414 µL/min/mg.

What about the IC50 [6, 35] of the same compound?
Its IC50 is 11.7 µM.

What about the chromatographic logD [8, 36] of the same compound?
Its chromatographic logD is 3.7.

What about the “Area% Human” value [28] of the same compound?
The value was 22.5%.

And the “Area% Mouse” value [29]?
The value was 76.1%.
